Consider 2 compounds from article PMC8213057, “Targeting ALK2: An Open Science Approach to Developing Therapeutics for the Treatment of Diffuse Intrinsic Pontine Glioma” (Journal of Medicinal Chemistry, 2020).

For one test, the target named is MLCK/MYLK (Homo sapiens, UniProt Q15746). Particulars: 1 μM; Run 1, Run 2.
The next test deals with MLK3/MAP3K11 (Homo sapiens, UniProt Q16584). The note with it: 1 μM; Run 1, Run 2.
A further test has as its target PHKg1 (Homo sapiens, UniProt Q16816). Particulars: 1 μM; Run 1, Run 2.
A further test concerns the target T1, TAOK2/TAO1 (Homo sapiens, UniProt Q9UL54).
T1 sequence (Q9UL54 1-1235): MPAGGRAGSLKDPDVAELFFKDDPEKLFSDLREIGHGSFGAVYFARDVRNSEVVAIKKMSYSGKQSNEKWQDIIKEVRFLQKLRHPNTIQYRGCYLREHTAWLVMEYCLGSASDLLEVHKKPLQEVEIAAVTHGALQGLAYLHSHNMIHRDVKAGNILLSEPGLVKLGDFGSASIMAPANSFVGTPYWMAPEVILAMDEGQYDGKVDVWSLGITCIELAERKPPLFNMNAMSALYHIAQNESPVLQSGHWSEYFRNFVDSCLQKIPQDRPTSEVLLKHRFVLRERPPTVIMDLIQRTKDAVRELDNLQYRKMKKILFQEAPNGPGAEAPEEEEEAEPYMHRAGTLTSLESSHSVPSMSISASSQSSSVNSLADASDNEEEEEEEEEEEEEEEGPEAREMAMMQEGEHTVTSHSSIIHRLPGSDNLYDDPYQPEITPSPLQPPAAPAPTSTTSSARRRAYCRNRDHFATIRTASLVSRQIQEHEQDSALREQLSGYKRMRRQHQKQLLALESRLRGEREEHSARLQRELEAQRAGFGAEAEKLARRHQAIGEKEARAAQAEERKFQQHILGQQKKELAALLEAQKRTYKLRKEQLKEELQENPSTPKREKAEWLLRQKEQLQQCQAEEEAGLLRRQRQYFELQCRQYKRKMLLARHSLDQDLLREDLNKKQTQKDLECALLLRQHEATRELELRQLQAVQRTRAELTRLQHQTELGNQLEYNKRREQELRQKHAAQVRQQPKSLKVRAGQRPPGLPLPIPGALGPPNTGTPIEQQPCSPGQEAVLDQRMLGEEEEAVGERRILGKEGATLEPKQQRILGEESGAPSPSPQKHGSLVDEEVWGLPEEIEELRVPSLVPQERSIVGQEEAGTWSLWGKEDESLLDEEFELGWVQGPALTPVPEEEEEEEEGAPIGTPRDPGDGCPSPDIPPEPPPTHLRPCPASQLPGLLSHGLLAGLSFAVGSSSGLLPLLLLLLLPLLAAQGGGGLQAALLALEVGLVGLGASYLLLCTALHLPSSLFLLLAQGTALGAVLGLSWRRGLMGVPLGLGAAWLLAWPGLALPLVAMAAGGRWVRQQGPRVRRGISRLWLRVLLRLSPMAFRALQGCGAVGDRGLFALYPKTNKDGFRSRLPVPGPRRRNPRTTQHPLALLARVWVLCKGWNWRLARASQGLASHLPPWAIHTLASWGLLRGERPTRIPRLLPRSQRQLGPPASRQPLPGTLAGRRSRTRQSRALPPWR
Particulars: 1 μM; Run 1, Run 2.

For another test, the target named is FAK/PTK2 (Homo sapiens, UniProt Q05397). As to the kind of experiment: biochemical. Particulars: read-out: % enzyme activity, 1 μM; Run 1, Run 2.
A further test has as its target MNK1 (Homo sapiens, UniProt Q9BUB5). As to the kind of experiment: biochemical. Particulars: read-out: % enzyme activity, 1 μM; Run 1, Run 2.
Another test concerns the target T2, PKD2/PRKD2 (Homo sapiens, UniProt Q9BZL6).
T2 sequence (Q9BZL6 1-878): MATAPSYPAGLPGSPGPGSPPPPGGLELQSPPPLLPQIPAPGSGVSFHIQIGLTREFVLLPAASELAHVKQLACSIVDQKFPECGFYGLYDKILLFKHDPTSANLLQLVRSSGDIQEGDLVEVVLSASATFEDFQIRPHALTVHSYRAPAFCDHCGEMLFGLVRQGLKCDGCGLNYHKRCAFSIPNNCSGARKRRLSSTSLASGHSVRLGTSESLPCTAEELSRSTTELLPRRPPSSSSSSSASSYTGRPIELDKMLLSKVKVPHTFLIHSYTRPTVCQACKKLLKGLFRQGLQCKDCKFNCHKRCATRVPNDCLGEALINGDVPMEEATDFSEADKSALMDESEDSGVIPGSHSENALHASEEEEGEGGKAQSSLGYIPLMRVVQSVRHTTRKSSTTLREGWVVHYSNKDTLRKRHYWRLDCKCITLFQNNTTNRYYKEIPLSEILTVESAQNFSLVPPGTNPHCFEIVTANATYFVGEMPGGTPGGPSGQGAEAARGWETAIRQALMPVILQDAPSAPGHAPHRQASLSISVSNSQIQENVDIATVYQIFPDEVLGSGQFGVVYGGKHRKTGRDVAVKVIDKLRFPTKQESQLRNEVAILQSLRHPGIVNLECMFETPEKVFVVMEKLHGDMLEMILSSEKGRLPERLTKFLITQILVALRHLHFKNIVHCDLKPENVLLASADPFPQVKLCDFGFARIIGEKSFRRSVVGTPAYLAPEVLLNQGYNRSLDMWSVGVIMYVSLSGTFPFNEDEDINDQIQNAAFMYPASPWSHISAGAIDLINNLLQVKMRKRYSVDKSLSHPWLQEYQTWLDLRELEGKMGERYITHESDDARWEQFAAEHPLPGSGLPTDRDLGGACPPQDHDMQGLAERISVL
The test can be described thus: biochemical. Particulars: read-out: % enzyme activity, 1 μM; Run 1, Run 2.

A further test deals with TRKA (Homo sapiens, UniProt P04629). As to the kind of experiment: biochemical. Particulars: read-out: % enzyme activity, 1 μM; Run 1, Run 2.
Sequence of TRKA (P04629 33-796): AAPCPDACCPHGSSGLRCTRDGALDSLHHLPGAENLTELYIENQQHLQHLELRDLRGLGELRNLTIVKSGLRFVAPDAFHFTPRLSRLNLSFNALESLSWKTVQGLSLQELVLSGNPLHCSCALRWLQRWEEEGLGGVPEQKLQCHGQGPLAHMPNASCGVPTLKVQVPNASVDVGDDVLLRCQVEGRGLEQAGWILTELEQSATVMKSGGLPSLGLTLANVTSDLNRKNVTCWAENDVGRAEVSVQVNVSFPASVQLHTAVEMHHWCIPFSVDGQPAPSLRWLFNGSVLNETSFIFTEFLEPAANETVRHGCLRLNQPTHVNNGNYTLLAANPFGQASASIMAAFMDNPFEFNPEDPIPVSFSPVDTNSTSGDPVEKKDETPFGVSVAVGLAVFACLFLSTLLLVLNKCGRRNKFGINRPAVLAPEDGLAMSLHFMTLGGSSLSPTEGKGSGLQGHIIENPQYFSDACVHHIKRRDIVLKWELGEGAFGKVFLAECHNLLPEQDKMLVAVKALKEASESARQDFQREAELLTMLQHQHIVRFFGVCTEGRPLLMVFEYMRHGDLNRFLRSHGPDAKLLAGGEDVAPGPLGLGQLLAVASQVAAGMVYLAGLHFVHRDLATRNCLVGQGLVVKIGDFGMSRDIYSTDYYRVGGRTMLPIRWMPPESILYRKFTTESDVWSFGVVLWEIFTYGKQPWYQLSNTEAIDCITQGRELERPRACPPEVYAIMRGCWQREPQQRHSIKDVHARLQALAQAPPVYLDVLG

Sequence of MLK3/MAP3K11 (Q16584 whole entry): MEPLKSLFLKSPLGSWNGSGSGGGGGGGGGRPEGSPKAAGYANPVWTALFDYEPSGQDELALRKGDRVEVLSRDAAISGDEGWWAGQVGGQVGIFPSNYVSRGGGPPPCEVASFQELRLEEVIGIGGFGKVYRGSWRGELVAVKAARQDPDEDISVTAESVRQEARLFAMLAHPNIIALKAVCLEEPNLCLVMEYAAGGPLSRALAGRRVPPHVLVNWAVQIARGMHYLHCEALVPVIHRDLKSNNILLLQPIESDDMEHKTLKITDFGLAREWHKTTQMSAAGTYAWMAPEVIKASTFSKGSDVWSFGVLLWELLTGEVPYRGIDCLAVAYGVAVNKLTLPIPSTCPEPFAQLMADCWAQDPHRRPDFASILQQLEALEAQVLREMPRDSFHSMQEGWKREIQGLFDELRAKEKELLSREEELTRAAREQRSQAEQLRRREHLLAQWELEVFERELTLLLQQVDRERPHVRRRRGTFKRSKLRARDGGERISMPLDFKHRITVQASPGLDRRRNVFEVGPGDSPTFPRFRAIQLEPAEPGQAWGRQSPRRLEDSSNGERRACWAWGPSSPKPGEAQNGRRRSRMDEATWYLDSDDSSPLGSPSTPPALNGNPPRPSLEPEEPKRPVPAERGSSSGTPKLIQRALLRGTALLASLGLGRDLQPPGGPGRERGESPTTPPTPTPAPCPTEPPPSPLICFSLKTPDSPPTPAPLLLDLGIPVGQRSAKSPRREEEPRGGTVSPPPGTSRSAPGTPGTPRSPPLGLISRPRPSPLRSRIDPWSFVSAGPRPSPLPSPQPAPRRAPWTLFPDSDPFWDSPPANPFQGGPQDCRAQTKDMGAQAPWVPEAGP
Sequence of MLCK/MYLK (Q15746 whole entry): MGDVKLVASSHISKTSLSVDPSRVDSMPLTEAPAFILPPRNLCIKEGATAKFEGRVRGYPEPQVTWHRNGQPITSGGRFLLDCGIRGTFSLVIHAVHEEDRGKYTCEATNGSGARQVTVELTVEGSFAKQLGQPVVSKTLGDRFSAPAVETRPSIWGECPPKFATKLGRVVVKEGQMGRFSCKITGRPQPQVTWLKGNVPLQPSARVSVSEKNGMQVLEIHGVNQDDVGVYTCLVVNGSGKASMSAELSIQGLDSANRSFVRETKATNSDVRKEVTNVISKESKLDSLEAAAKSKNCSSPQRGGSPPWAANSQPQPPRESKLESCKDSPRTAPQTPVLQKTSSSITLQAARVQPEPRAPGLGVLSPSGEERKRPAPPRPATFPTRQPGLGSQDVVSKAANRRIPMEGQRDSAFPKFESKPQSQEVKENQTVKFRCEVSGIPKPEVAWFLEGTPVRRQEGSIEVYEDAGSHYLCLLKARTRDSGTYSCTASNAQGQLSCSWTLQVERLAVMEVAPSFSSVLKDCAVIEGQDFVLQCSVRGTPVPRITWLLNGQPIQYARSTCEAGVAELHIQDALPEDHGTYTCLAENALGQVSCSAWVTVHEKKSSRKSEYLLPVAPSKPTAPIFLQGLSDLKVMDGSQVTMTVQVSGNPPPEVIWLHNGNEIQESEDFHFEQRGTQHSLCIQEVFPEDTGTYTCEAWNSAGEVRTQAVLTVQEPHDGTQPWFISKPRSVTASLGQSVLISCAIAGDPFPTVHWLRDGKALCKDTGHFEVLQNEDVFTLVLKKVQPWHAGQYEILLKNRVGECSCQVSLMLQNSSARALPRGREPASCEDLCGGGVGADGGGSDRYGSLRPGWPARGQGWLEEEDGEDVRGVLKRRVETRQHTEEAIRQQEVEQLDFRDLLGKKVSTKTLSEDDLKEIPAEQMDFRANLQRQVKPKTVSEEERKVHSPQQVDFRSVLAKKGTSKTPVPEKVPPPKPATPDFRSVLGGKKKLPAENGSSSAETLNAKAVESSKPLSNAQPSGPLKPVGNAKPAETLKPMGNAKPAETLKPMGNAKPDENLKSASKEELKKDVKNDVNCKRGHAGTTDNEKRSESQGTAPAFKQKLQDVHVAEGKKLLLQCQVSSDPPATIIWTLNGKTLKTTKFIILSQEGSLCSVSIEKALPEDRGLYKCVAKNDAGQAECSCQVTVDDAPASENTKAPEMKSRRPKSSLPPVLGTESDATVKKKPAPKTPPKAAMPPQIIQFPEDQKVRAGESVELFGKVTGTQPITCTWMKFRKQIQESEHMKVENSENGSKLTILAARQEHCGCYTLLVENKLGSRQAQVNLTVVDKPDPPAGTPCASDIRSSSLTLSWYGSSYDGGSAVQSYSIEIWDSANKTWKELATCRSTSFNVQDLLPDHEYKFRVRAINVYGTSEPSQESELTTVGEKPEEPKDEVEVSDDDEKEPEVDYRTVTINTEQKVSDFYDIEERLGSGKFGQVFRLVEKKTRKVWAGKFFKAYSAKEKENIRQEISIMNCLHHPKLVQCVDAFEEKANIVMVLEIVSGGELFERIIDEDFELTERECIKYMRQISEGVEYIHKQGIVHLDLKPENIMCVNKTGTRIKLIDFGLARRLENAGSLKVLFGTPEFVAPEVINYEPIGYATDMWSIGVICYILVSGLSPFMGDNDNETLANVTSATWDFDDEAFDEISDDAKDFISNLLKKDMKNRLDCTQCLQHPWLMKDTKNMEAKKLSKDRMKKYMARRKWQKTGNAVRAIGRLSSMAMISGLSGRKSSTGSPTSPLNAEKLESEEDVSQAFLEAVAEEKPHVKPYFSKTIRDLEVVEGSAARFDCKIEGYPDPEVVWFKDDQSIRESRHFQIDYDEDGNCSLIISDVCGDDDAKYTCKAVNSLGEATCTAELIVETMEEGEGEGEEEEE
Sequence of MNK1 (Q9BUB5 whole entry): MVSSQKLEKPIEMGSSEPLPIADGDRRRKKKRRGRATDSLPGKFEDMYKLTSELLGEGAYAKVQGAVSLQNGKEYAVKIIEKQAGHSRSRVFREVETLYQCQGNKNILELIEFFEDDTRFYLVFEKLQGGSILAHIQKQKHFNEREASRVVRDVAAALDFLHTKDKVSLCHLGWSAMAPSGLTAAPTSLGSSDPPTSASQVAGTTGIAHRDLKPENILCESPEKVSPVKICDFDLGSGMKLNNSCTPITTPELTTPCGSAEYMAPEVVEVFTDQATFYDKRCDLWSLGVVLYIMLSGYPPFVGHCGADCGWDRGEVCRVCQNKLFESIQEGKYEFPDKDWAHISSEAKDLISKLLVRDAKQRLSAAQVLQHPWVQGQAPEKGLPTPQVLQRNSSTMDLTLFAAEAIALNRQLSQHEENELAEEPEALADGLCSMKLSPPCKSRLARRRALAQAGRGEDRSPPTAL
Sequence of FAK/PTK2 (Q05397 whole entry): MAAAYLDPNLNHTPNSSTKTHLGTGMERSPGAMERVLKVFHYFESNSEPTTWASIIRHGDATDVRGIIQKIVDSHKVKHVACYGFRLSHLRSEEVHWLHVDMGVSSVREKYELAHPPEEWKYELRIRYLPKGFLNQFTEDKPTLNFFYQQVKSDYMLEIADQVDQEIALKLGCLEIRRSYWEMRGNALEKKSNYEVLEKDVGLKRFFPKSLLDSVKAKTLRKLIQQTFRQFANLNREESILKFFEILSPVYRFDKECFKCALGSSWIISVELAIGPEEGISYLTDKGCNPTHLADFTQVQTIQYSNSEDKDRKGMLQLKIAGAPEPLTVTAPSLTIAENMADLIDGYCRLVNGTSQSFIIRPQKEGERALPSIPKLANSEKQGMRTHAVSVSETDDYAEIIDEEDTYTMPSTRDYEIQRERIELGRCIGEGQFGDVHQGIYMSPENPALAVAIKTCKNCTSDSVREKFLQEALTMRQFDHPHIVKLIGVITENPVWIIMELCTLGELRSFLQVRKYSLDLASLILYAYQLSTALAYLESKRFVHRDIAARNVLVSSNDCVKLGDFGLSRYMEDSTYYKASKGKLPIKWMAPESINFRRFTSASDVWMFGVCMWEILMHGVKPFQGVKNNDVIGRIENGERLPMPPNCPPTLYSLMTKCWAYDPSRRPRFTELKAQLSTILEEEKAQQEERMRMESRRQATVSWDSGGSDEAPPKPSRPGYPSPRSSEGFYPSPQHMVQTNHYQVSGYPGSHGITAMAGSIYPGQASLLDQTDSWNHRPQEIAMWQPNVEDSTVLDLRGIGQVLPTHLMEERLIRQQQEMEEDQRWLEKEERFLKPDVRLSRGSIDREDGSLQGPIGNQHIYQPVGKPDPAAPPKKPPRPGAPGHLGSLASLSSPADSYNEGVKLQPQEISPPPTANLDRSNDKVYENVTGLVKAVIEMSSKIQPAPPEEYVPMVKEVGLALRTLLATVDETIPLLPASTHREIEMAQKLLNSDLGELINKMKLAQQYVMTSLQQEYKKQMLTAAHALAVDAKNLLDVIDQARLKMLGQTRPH

For `COc1cc(-c2cncc(-c3ccc(N4C[C@@H](C)N(C)[C@@H](C)C4)cc3)c2C)cc(F)c1C(N)=O` [Compound 26c, 2-Fluoro-6-methoxy-4-(4-methyl-5-(4-((3R,5S)-3,4,5-trimethylpiperazin-1-yl)phenyl)pyridin-3-yl)benzamide], the “% enzyme activity” value on MLCK/MYLK worked out at 101.49%; on MLK3/MAP3K11 it was 96.66%; on PHKg1, 95.24%; at TAOK2/TAO1, 99.37%. Further, the remaining activity at 1 µM is 95.4% at FAK/PTK2, 71.4% at MNK1, 99.2% on PKD2/PRKD2 and 95.2% on TRKA.
For the compound `COc1cc(-c2cncc(-c3ccc(N4CCN(C)CC4)cc3)c2C)cc(F)c1C(N)=O` [Compound 26a, 2-Fluoro-6-methoxy-4-(4-methyl-5-(4-(4-methylpiperazin-1-yl)phenyl)pyridin-3-yl)benzamide], the “% enzyme activity” value on MLCK/MYLK is given as 106.15%; at MLK3/MAP3K11 it was 99.32%; at PHKg1, 82.79%; at TAOK2/TAO1 it was 87.58%. In addition, the remaining activity at 1 µM came to 94% on FAK/PTK2, 51.1% on MNK1, 96.1% at PKD2/PRKD2 and 91.8% at TRKA.
